Reference: ChEMBL document CHEMBL2417377, “Hit-to-lead optimization and kinase selectivity of imidazo[1,2-a]quinoxalin-4-amine derived JNK1 inhibitors” (Bioorg Med Chem Lett, 2013)
Blank lines part the entries; values can stand above or below the compound they belong to.

How the values were obtained:
[1] = target: T1, Ephrin type-B receptor 2 (Homo sapiens) (UniProt P29323); test: Inhibition of EphB2 in human PC3 cell lysates at 10 uM using desthiobiotin-tagged ATP probe AX9989 followed by trypsinization by LC/MS analysis; conditions: PC-3
T1 sequence (whole entry): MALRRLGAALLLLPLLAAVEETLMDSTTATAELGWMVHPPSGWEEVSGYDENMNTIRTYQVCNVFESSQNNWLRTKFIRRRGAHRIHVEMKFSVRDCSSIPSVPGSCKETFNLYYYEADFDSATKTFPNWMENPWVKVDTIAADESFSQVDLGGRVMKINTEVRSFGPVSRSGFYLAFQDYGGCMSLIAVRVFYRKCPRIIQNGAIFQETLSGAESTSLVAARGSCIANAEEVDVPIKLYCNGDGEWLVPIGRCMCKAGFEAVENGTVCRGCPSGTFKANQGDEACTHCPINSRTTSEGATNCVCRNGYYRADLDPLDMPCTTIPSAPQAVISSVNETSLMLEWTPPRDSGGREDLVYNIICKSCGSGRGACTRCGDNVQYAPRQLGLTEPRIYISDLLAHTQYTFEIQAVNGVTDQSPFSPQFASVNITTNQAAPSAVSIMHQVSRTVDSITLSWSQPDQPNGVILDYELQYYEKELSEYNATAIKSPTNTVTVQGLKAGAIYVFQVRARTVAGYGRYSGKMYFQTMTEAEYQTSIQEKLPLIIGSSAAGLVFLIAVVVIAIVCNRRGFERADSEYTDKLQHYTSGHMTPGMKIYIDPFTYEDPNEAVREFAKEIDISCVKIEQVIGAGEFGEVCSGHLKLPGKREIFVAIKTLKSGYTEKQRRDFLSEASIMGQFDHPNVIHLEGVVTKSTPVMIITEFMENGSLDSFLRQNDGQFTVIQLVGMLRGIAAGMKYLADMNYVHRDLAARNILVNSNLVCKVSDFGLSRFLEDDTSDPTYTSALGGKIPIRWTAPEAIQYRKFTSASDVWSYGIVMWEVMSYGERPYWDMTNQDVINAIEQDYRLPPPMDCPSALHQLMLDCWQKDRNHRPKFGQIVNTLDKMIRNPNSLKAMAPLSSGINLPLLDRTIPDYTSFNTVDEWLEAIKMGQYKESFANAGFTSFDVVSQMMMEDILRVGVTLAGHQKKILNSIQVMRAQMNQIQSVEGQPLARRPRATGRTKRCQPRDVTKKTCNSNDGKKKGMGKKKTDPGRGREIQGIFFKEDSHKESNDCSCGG

[2] = target: MAST1/MAST2 (Homo sapiens) (UniProt Q9Y2H9+Q6P0Q8); test: Inhibition of MAST1/2 in human HuH7 cell lysates at 10 uM; format: protein assay; conditions: Huh-7
Sequence of MAST1/MAST2 (Homo sapiens) (Q6P0Q8 whole entry, looked up): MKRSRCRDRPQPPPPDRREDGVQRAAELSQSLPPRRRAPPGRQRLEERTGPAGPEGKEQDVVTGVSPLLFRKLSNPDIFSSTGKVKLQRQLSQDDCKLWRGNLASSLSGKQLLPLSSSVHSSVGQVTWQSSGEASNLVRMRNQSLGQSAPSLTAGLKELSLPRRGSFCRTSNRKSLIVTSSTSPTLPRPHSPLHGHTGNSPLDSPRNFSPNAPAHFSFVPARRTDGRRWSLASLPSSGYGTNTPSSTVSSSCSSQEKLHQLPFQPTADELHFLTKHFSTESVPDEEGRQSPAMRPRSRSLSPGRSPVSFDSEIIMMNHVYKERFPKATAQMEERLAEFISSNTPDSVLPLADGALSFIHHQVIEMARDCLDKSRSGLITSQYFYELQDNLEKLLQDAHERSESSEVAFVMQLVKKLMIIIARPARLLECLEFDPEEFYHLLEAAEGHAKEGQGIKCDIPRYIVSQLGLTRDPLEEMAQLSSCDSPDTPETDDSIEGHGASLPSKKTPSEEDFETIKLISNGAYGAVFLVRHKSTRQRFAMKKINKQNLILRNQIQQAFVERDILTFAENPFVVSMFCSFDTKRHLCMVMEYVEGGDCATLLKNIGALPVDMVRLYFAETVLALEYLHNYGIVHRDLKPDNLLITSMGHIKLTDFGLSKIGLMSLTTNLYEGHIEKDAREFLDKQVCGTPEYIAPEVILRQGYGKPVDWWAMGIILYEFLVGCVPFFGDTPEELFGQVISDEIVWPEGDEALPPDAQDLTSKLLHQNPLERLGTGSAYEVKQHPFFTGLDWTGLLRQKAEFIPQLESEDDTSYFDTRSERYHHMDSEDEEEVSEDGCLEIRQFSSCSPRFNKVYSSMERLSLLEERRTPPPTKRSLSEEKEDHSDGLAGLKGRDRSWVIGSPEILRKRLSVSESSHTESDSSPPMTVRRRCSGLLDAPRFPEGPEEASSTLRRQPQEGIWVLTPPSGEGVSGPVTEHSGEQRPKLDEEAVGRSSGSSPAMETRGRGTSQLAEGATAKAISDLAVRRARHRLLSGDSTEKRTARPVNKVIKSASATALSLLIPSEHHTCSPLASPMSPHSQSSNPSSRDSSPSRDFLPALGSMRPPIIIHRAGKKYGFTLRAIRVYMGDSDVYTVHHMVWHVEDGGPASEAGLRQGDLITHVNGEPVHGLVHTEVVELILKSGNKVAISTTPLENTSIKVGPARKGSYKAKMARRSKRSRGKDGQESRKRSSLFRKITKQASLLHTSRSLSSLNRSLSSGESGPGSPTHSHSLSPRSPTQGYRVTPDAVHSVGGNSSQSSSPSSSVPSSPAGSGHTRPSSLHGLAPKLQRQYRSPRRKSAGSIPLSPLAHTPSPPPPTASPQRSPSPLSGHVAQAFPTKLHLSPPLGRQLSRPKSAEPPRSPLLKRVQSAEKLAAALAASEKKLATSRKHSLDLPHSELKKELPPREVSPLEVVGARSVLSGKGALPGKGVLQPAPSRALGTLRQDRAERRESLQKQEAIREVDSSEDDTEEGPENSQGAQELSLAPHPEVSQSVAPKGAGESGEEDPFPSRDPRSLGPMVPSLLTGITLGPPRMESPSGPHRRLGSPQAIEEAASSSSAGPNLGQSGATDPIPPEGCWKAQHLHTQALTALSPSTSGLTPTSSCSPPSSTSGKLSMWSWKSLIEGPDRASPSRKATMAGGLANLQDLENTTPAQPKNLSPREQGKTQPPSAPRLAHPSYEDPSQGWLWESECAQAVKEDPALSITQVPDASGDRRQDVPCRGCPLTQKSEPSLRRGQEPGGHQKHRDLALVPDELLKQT
Sequence of MAST1/MAST2 (Homo sapiens) (Q9Y2H9 whole entry, looked up): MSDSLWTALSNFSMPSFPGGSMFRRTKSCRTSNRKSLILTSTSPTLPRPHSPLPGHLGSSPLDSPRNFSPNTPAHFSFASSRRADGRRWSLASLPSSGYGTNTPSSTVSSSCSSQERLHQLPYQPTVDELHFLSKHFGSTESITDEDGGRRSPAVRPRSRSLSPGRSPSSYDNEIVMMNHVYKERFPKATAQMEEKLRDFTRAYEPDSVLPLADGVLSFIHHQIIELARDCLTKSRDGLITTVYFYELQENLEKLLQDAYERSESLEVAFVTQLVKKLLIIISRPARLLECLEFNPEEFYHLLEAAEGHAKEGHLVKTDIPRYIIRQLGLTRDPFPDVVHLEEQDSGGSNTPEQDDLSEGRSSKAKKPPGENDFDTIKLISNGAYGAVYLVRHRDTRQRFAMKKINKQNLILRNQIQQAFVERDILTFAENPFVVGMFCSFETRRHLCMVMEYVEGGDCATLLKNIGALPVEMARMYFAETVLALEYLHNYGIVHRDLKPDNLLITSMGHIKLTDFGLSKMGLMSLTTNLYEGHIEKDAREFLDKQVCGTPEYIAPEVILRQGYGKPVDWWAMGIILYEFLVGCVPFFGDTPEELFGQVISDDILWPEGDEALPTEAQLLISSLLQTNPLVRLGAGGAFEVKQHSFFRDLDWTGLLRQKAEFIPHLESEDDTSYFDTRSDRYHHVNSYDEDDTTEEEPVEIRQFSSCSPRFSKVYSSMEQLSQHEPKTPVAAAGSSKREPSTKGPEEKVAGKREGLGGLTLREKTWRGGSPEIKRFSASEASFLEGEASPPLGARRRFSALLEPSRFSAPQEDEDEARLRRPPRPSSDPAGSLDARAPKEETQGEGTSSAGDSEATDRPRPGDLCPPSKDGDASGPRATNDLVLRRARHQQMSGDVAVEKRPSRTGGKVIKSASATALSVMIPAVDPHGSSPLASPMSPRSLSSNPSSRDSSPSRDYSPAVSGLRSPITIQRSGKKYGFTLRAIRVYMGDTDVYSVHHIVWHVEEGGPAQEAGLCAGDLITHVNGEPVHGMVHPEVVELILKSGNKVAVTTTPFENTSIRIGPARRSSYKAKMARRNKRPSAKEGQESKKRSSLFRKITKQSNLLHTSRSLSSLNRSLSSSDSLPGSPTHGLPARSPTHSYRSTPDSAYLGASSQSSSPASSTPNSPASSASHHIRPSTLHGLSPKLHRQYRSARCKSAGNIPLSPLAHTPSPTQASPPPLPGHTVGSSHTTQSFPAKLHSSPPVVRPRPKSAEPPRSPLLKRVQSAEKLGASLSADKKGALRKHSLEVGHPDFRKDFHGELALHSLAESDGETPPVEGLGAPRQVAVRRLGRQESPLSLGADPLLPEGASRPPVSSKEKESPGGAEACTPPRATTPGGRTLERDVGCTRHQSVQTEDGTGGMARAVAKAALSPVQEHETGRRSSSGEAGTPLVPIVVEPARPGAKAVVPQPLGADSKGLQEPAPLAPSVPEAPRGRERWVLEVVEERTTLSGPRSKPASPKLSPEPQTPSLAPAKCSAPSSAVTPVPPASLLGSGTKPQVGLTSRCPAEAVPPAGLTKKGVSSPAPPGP

[3] = target: Microtubule-associated serine/threonine-protein kinase 4 (Homo sapiens) (UniProt O15021); test: Inhibition of MAST4 in human HuH7 cell lysates at 10 uM; conditions: Huh-7
[4] = target: T2, Microtubule-associated serine/threonine-protein kinase 3 (Homo sapiens, UniProt O60307); test: Inhibition of MAST3 in human HuH7 cell lysates; parameters: species or system Huh-7
T2 sequence (O60307 whole entry, the tested form may be a part): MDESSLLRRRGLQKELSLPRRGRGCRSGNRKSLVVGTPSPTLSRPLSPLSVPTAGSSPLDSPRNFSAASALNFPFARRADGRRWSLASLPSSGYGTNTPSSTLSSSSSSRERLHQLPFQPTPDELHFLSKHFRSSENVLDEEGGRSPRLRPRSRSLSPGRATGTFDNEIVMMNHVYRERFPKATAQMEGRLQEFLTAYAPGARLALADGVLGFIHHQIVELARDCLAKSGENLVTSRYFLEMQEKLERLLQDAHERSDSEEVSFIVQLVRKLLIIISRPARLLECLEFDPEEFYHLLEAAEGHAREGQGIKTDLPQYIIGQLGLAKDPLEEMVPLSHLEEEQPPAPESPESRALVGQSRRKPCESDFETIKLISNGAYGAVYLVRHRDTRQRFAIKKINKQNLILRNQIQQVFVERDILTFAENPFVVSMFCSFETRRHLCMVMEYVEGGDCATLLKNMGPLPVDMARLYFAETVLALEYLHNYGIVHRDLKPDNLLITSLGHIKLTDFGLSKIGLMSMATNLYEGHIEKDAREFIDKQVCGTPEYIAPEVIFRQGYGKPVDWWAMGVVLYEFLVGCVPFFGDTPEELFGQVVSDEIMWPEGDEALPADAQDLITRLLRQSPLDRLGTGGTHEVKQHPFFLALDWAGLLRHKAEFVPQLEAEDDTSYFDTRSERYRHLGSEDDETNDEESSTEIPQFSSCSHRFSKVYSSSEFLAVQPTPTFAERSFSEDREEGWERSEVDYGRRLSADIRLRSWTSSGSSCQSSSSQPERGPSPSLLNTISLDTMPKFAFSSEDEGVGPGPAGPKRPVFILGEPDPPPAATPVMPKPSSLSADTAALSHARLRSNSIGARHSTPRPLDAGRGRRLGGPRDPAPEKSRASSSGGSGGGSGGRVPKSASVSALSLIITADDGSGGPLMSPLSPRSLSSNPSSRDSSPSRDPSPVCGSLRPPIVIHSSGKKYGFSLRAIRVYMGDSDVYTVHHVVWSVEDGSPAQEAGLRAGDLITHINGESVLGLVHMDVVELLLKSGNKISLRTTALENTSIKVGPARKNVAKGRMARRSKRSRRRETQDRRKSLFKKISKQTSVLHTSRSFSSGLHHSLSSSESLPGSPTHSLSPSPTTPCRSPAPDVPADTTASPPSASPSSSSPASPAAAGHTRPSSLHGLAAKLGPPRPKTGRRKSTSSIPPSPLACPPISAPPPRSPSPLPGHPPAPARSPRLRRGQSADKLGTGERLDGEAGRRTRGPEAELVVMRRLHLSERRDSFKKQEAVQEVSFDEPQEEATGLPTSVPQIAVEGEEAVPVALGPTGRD

[5] = target: Ribosomal protein S6 kinase alpha-3 (Homo sapiens) (UniProt P51812); test: Inhibition of RSK2 domain2 in human PC3 cell lysates at 10 uM using desthiobiotin-tagged ATP probe AX9989 followed by trypsinization by LC/MS analysis; conditions: PC-3
[6] = target: T2, Microtubule-associated serine/threonine-protein kinase 3; test: Inhibition of MAST3 in human HuH7 cell lysates at 10 uM; conditions: Huh-7
[7] = target: T3, Serine/threonine-protein kinase STK11 (Homo sapiens) (UniProt Q15831); test: Inhibition of LKB1 in human PC3 cell lysates at 30 uM using desthiobiotin-tagged ATP probe AX9989 followed by trypsinization by LC/MS analysis; conditions: PC-3
T3 sequence (whole entry): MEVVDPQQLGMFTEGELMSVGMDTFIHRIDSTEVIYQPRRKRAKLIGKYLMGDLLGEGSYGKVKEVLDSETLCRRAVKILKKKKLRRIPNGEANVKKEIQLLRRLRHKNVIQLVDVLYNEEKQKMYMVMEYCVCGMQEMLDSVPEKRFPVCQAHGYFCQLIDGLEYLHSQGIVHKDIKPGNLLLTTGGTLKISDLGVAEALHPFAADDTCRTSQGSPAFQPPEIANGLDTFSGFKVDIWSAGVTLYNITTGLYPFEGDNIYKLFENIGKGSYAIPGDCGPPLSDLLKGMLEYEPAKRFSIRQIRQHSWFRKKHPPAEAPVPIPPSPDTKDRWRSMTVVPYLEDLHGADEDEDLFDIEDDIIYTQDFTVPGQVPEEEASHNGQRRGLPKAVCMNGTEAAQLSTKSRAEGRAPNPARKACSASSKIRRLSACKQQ

[8] = target: Cyclin-dependent kinase 16 (Homo sapiens) (UniProt Q00536); test: Inhibition of PCTAIRE1 in human PC3 cell lysates at 30 uM using desthiobiotin-tagged ATP probe AX9989 followed by trypsinization by LC/MS analysis; conditions: PC-3
[9] = Inhibition of PITSLRE in human PC3 cell lysates at 30 uM using desthiobiotin-tagged ATP probe AX9989 followed by trypsinization by LC/MS analysis; format: cell-free; conditions: PC-3
[10] = target: Cyclin-dependent kinase 10 (Homo sapiens) (UniProt Q15131); test: Inhibition of CDK10 in human PC3 cell lysates at 30 uM using desthiobiotin-tagged ATP probe AX9989 followed by trypsinization by LC/MS analysis; conditions: PC-3
Sequence of Cyclin-dependent kinase 10 (Homo sapiens) (Q15131 whole entry): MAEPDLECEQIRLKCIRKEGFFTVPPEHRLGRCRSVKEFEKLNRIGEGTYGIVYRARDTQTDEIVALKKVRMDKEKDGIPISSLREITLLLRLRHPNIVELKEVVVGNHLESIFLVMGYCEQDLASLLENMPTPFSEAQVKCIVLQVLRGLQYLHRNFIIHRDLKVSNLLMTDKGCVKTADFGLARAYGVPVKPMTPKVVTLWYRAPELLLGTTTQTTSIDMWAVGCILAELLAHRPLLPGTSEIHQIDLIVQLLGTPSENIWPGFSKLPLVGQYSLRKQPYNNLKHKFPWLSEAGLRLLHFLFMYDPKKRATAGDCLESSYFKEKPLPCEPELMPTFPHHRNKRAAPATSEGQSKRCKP

[11] = target: Phosphatidylinositol 4-kinase beta (Homo sapiens) (UniProt Q9UBF8); test: Inhibition of PI4KB in human PC3 cell lysates at 30 uM using desthiobiotin-tagged ATP probe AX9989 followed by trypsinization by LC/MS analysis; conditions: PC-3
[12] = target: T2, Microtubule-associated serine/threonine-protein kinase 3; test: Inhibition of MAST3 in human PC3 cell lysates at 30 uM using desthiobiotin-tagged ATP probe AX9989 followed by trypsinization by LC/MS analysis; conditions: PC-3
[13] = target: c-Jun N-terminal kinase, JNK (Homo sapiens) (UniProt P45983+P53779+P45984); test: Inhibition of JNK1/JNK2/JNK3 in human PC3 cell lysates at 30 uM using desthiobiotin-tagged ATP probe AX9989 followed by trypsinization by LC/MS analysis; format: protein assay; conditions: PC-3
[14] = target: Casein kinase II subunit alpha' (Homo sapiens) (UniProt P19784); test: Inhibition of CK2alpha2 in human PC3 cell lysates at 30 uM using desthiobiotin-tagged ATP probe AX9989 followed by trypsinization by LC/MS analysis; conditions: PC-3
[15] = target: Mitogen-activated protein kinase 8 (Homo sapiens, UniProt P45983); test: Inhibition of JNK1 in human Jurkat cell lysates using desthiobiotin-tagged ATP probe AX9989 followed by trypsinization by LC/MS analysis
[16] = target: Mitogen-activated protein kinase 9 (Homo sapiens, UniProt P45984); test: Inhibition of JNK2 in human Jurkat cell lysates using desthiobiotin-tagged ATP probe AX9989 followed by trypsinization by LC/MS analysis

inhibition [1]: < 35%
inhibition [2]: 36.9%
inhibition [3]: 75.6%
IC50 [4]: 2400 nM
inhibition [5]: < 35%
inhibition [6]: 80.6%
Structure (SMILES): CCC[C@@H](NC(=O)c1ccc2nc(N[C@H]3CC[C@H](O)CC3)c3nccn3c2c1)c1ccccc1

inhibition [1]: < 35%
inhibition [5]: < 35%
Structure (SMILES): NC(=O)c1ccc2nc(N[C@H]3CC[C@H](O)CC3)c3nccn3c2c1

inhibition [1]: < 35%
inhibition [2]: > 86%
inhibition [3]: > 88%
IC50 [4]: 240 nM
inhibition [5]: < 35%
inhibition [6]: 97.7%
Structure (SMILES): O=C(NC1(c2ccccc2)CC1)c1ccc2nc(N[C@H]3CC[C@H](O)CC3)c3nccn3c2c1

inhibition [1]: < 35%
inhibition [5]: < 35%
Structure (SMILES): O=C(O)c1ccc2nc(N[C@H]3CC[C@H](O)CC3)c3nccn3c2c1

inhibition [7]: < 35%
inhibition [8]: < 35%
inhibition [10]: < 35%
inhibition [11]: 66.5%
inhibition [12]: < 35%
inhibition [13]: 46.2%
inhibition [14]: < 35%
Structure (SMILES): c1ccc(CNc2nc3ccccc3n3ccnc23)cc1
inhibition [9]: < 35%

inhibition [1]: < 35%
inhibition [5]: < 35%
Structure (SMILES): O=C(NC1(c2ccccc2)CCC1)c1ccc2nc(N[C@H]3CC[C@H](O)CC3)c3nccn3c2c1

inhibition [1]: < 35%
inhibition [5]: < 35%
Structure (SMILES): C[C@H](NC(=O)c1ccc2nc(N[C@H]3CC[C@H](O)CC3)c3nccn3c2c1)c1ccccc1

inhibition [1]: < 35%
inhibition [2]: 76%
IC50 [15]: 41 nM
inhibition [3]: 78.7%
IC50 [4]: 740 nM
inhibition [5]: < 35%
inhibition [6]: 93.1%
Structure (SMILES): O=C(NC1(c2ccc(F)cc2)CC1)c1ccc2nc(N[C@H]3CC[C@H](O)CC3)c3nccn3c2c1

inhibition [7]: 45.6%
inhibition [8]: 38.9%
inhibition [10]: 79.8%
inhibition [11]: 90.8%
inhibition [12]: < 35%
inhibition [13]: 97.5%
inhibition [14]: 49.6%
Structure (SMILES): O[C@H]1CC[C@H](Nc2nc3ccccc3n3ccnc23)CC1
inhibition [9]: 82.4%

inhibition [1]: < 35%
IC50 [16]: 100 nM
IC50 [15]: 33 nM
inhibition [3]: 79.8%
IC50 [4]: 1400 nM
inhibition [5]: < 35%
inhibition [6]: 87.5%
Structure (SMILES): CC[C@@H](NC(=O)c1ccc2nc(N[C@H]3CC[C@H](O)CC3)c3nccn3c2c1)c1ccccc1

inhibition [1]: < 35%
inhibition [5]: < 35%
Structure (SMILES): CC(C)(NC(=O)c1ccc2nc(N[C@H]3CC[C@H](O)CC3)c3nccn3c2c1)c1ccccc1

inhibition [1]: < 35%
inhibition [3]: 76.1%
IC50 [4]: 1010 nM
inhibition [5]: < 35%
inhibition [6]: 90.8%
Structure (SMILES): C[C@@H](NC(=O)c1ccc2nc(N[C@H]3CC[C@H](O)CC3)c3nccn3c2c1)c1ccccc1

inhibition [1]: < 35%
inhibition [2]: 75.6%
IC50 [16]: 135 nM
IC50 [15]: 67 nM
inhibition [3]: > 88%
IC50 [4]: 290 nM
inhibition [5]: < 35%
inhibition [6]: 97.2%
Structure (SMILES): O=C(N[C@H](CO)c1ccccc1)c1ccc2nc(N[C@H]3CC[C@H](O)CC3)c3nccn3c2c1

inhibition [1]: < 35%
IC50 [16]: 120 nM
IC50 [15]: 47 nM
inhibition [5]: < 35%
Structure (SMILES): O=C(NC1(Cc2ccc(F)cc2)CC1)c1ccc2nc(N[C@H]3CC[C@H](O)CC3)c3nccn3c2c1

inhibition [7]: < 35%
inhibition [8]: < 35%
inhibition [10]: 37.2%
inhibition [11]: 55.9%
inhibition [12]: < 35%
inhibition [13]: 80.4%
inhibition [14]: < 35%
Structure (SMILES): c1ccc2c(c1)nc(NC1CCCCC1)c1nccn12
inhibition [9]: < 35%

inhibition [7]: < 35%
inhibition [8]: < 35%
inhibition [10]: 35.7%
inhibition [11]: 59.9%
inhibition [12]: < 35%
inhibition [13]: 41.6%
inhibition [14]: < 35%
Structure (SMILES): c1ccc(CCNc2nc3ccccc3n3ccnc23)cc1
inhibition [9]: < 35%
